In US11331268B2, “Taste masking product” (The University of Western Australia, priority 2016, dated 2022):
Structures can show the parent of a compound that is named as a salt. Where two headings read alike, the source gives them in different places.

How the values were obtained:
[1] = cited from earlier work
Sprague Dawley rats = assay: Rat Brief-Access Taste Aversion (BATA) model; type: in vivo
Procedure: The rat ‘Brief-Access Taste Aversion’ (BATA) model was used to assess the taste of the midazolam chocolate tablet formulation relative to control samples. Ten male Sprague Dawley rats (average weight […]) previously trained for the experiments were used and two independent tasting evaluations were conducted over 2 days.
Prior to the experiments, the rats were water-deprived for 22 hours but had access to food ad libitum. Each rat was placed into the Lickometer Davis Rig MS-160 (DiLog Instruments, Tallahassee, Fla., USA) for a 40-minute session where it would be presented with 16 sipper tubes mounted on a moving rack controlled by the Davis Collect Data software. The taste samples were each presented to the rat for 8 seconds, in a random order specified by the computer program. Over the 40-minute session, a sample would have been presented to the rat four times, with a 2-second water rinse given between samples. As the rats licked on the sipper, the number of licks was recorded electronically and transmitted to a database on a computer.
The 5 mg midazolam HCl chocolate tablets were assessed against control samples, which included deionized water, vehicle (water adjusted to pH 5 with HCl), 1 mg/mL solution of midazolam in the vehicle, a 2.5 mg/mL oral midazolam syrup manufactured by AUSPMAN, and chocolate placebo tablets. Simulating the advice to patients to chew the chocolate tablet and then swallow, the placebo and midazolam-loaded chocolate tablets were prepared for the taste evaluation by grinding each chocolate tablet in 2 mL of water, which mimics the volume of saliva, using a mortar and pestle. The resultant liquid preparations were then presented to the rats. […]
Aversion to the taste of a sample was indicated by a significant reduction in the number of licks when the sample was presented to the rats. […] Data was analysed using the RStudio software (https://www.rstudio.com) and applying the non-parametric Kruskal Wallis test with post-hoc Tukey's test for paired comparisons.

[2] = cited from earlier work; remark: listed apart in the source

For `Cc1ncc2n1-c1ccc(Cl)cc1C(c1ccccc1F)=NC2` [Midazolam, midazolam], the solubility in water ([1]; low pH) is given as over 2500 µg/mL and the solubility in water ([1]; pH>5) is given as “less than 0.1 mg/ml”.
For `Cc1ncc2n1-c1ccc(Cl)cc1C(c1ccccc1F)=NC2` [midazolam HCl, midazolam hydrochloride], the IC50 (Sprague Dawley rats; Rattus norvegicus, midazolam HCl standard solutions in vehicle (water pH 5), n=2, read-out: IC50 (dose-response of number of licks)) was 300 ± 290 µg/mL, the “detection threshold for the bitter taste” value (Sprague Dawley rats; rodent model) was “about 0.03 mg/ml” and the “concentration receiving comparable numbers of licks to blank vehicle” value (Sprague Dawley rats; standard solutions in vehicle) was “up to 0.03 mg/mL”.
For `COc1cccc(C2(O)CCCCC2CN(C)C)c1` (stereo not drawn) [tramadol HCl, tramadol hydrochloride], the “solubility in aqueous media” value [2] is listed as at most 2000 µg/mL.
